The structures appear in SMILES notation. Where a name gives a salt, the structure may show the parent alone.

Assay [1] addresses T1, GST-TIE2 (intracellular domains of human TIE2) (Homo sapiens, UniProt Q02763).
T1 construct: made in house
The assay is described as follows: TIE-2 enzyme assay (TIE2-E), LANCE method. The following applies: 80 uM ATP. Format: biochemical. The method, then:
TIE-2Enzyme Assay (TIE2-E)
The TIE-2 enzyme assay used the LANCE method (Wallac) and GST-TIE2, baculovirus expressed recombinant constructs of the intracellular domains of human TIE2 (amino acids 762–1104, GenBank Accession # L06139) tagged by GST). […] This peptide phosphorylation was detected using the following procedure: for enzyme preactivation, GST-TIE2 was incubated for 30 mins at room temperature with 2 mM ATP, 5 mM MgCl2 and 12.5 mM DTT in 22.5 mM HEPES buffer (pH7.4). Preactivated GST-TIE2 was incubated for 30 mins at room temperature in 96 well plates with 1 μM D1-15 peptide, 80 uM ATP, 10 mM MgCl2, 0.1 mg/ml BSA and the test compound (diluted from a 10 mM stock in DMSO, final DMSO concentration was 2.4%) in 1 mM HEPES (pH7.4). The reaction was stopped by the addition of EDTA (final concentration 45 mM). Streptavidin linked-APC (allophycocyanin, Molecular Probe) and Europium-labeled anti-phosphorylated tyrosine antibody (Wallac) were then added at the final concentration of 17 μg/well and 2.1 μg/well, respectively. The APC signal was measured using an ARVO multilabel counter. (Wallac Berthold Japan). The percent inhibition of activity was calculated relative to blank control wells. The concentration of test compound that inhibits 50% of activity (IC50) was interpolated using nonlinear regression (Levernberg-Marquardt) and the equation, y=Vmax (1−x/(K+x))+Y2, where “K” was equal to the IC50. The IC50 values were converted to pIC50 values, i.e., −log IC50 in Molar concentration.

Assay [2] deals with T2, TIE2 intracellular domain/c-fms extracellular domain (TIE2/c-fms) chimeric protein expressing mouse 3T3 cells (Homo sapiens, UniProt Q02763).
T2 construct: a TIE2 intracellular domain/c-fms extracellular domain (TIE2/c-fms) chimeric protein; expressed in transfected cells; host or cells: mouse 3T3 cells
T2 sequence (Q02763 770-1124 limits assumed, change not shown): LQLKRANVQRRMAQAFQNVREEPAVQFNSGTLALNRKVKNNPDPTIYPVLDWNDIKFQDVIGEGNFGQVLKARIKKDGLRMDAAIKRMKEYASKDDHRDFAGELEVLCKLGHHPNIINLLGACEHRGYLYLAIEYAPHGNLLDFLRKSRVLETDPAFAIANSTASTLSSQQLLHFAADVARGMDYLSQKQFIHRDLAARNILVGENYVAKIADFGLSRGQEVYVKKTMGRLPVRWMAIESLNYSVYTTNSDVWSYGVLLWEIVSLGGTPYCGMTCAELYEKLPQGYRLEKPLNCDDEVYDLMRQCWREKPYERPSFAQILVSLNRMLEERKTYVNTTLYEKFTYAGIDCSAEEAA
The assay is described as follows: TIE-2 autophosphorylation assay (TIE2-C), ELISA. Format: cell-based. Particulars: TIE2/c-fms 3T3 cells, MCSF activation. The method, then:
TIE-2 Autophosphorylation Assay (TIE2-C)
The TIE-2 autophosphorylation assay used an ELISA method and a TIE2 intracellular domain/c-fms extracellular domain (TIE2/c-fms) chimeric protein expressing mouse 3T3 cells. This assay measured the autophosphorylation level of TIE2 protein expressed in cells. The cells were cultured in high glucose DMEM (Sigma) containing 10% serum at 37° C. in a humidified 10% CO2, 90% air incubator. The test compound (diluted from a 10 mM stock in DMSO, final DMSO concentration was 0.1%) was incubated with TIE2/c-fms expressing cells for 1 hr in serum free DMEM in 96 well plates followed by the activation of TIE2/c-fms receptor using c-fms ligand, MCSF (macrophage colony stimulating factor). The culture media was removed by aspiration and the cells incubated for at least 30 mins on ice with lysis buffer containing 137 mM NaCl, 2 mM EDTA, 10% glycerol, […] sodium ortho vanadate and complete protease inhibitor cocktail (Roche) in 20 mM Tris-HCl (pH8.0). The cell extracts were transferred into Rat anti-c-fms antibody coated 96 well plates and incubated for 12 hrs at 4° C. The extracts were removed by aspiration and the plate was incubated with biotinylated anti-phosphotyrosine antibody, PT66 (Sigma) and then with HRP (Horseradish Peroxidase)-labeled streptavidin (PIERCE). The optical density at 450 nm derived from HRP catalyzed TMB was measured with an ARVO multilabel counter. (Wallac Berthold Japan). The percent inhibition of activity was calculated relative to blank control wells. The concentration of test compound that inhibits 50% of activity (IC50) was interpolated using nonlinear regression (Levernberg-Marquardt) and the equation, y=Vmax (1−x/(K+x))+Y2, where “K” was equal to the IC50. The IC50 values were converted to pIC50 values, i.e., −log IC50 in Molar concentration.
(In an ELISA, binding on a coated surface is turned into a signal by an enzyme label.)

For a further assay, the target named is T3, GST-VEGFR2 (Homo sapiens, UniProt P35968).
T3 construct: GST-VEGFR2, baculovirus expressed recombinant constructs of the intracellular domains of human TIE2 tagged by GST; made in house
T3 sequence (P35968 786-1356 limits assumed): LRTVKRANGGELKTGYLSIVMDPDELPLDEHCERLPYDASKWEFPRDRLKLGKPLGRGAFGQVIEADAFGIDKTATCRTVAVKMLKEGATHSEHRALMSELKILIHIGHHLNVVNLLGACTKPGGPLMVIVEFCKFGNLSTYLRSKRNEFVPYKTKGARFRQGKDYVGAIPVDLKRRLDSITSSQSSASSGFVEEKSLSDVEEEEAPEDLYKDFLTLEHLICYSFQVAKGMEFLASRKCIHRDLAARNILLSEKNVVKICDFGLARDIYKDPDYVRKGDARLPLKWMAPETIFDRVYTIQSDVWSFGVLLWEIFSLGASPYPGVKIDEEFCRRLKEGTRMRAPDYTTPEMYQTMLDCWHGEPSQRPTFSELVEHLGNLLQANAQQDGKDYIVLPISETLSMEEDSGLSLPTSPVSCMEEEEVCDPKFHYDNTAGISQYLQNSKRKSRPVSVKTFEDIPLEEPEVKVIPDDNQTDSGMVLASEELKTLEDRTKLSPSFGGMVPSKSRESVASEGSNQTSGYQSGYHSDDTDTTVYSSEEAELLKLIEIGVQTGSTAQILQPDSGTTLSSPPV
The assay is described as follows: VEGF-R2 enzyme assay (VEGF-E), LANCE method. Particulars: 75 μM ATP. It counts as biochemical. The protocol: VEGF-R2 Enzyme Assay (VEGF-E)
The VEGF enzyme assay used the LANCE method (Wallac) and GST-VEGFR2, baculovirus expressed recombinant constructs of the intracellular domains of human […] tagged by GST. […] The reaction was stopped by the addition of EDTA (final concentration 50 mM). Streptavidin linked-APC (allophycocyanin, Molecular Probe) and Europium-labeled anti-phosphorylated tyrosine antibody (Wallac) were then added at the final concentration of 15 nM and 1 nM, respectively. The APC signal was measured using an ARVO multilabel counter (Wallac Berthold, Japan). The percent inhibition of activity was calculated relative to blank control wells. The concentration of test compound that inhibits 50% of activity (IC50) was interpolated using nonlinear regression (Levernberg-Marquardt) and the equation, y=Vmax (1−x/(K+x))+Y2, where “K” was equal to the IC50. The IC50 values were converted to pIC50 values, i.e., −log IC50 in Molar concentration.

T1 sequence (Q02763 762-1104): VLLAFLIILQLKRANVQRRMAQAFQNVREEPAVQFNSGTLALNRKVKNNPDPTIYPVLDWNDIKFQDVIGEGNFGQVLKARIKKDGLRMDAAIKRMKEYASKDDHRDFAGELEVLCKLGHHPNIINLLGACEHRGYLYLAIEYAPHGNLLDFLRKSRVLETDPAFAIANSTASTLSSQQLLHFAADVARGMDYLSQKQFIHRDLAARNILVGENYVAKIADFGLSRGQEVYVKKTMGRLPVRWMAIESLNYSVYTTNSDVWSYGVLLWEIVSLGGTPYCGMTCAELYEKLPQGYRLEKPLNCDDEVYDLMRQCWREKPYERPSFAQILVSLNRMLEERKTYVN

What is called IC50 is the concentration that gives 50% inhibition. Consider `COC(=O)Nc1nc2cc([S+]([O-])c3ccc(NC(=O)Nc4cc(Cl)ccc4Cl)cc3)ccc2[nH]1` (centres unmarked) [Example 79, Methyl N-(5-(4-((2,5-dichlorophenyl)aminocarbonylamino)phenylsulfinyl)-1H-benzimidazol-2-yl)carbamate], for which the IC50 in assay [1] and in assay [2] was 0.1 to 1 µM each time.
As for `CCc1cccc(NC(=O)Nc2ccc(Oc3ccc4[nH]c(NC(=O)OC)nc4c3)nc2)c1` [Example 39, Methyl N-(5-(5-((3-ethylphenyl)aminocarbonylamino)-2-pyridyloxy)-1H-benzimidazol-2-yl)carbamate], the half-inhibitory concentration (IC50) (in assay [1]; in assay [2]; at GST-VEGFR2) was 0.1 to 1 µM each time.
For the compound `COC(=O)Nc1nc2cc(Oc3ccc(NC(=S)Nc4cccc(Cl)c4)cc3)ccc2[nH]1` [Example 184, Methyl N-(5-(4-((3-chlorophenyl)aminothiocarbonylamino)phenoxy)-1H-benzimidazol-2-yl)carbamate], the IC50 was 1 to 10 µM in assay [1], 1 to 10 µM in assay [2] and less than 0.1 µM at GST-VEGFR2.
For the compound `O=C(Nc1ccc(Oc2ccc3nc(NC(=O)c4cccs4)[nH]c3c2)cc1)Nc1cc(C(F)(F)F)ccc1F` [Example 100, N-(5-(4-((2-Fluoro-5-(trifluoromethyl)phenyl)aminocarbonylamino)phenoxy)-1H-benzimidazol-2-yl)-2-thiophenecarboxamide], the IC50 (in assay [1]; in assay [2]; against GST-VEGFR2) was less than 0.1 µM each time.
`O=C(Nc1ccc(Oc2ccc3nc(NC(=O)c4c[nH]c5ccccc45)[nH]c3c2)cc1)Nc1cc(C(F)(F)F)ccc1F` [Example 95, N-(5-(4-((2-Fluoro-5-(trifluoromethyl)phenyl)aminocarbonylamino)phenoxy)-1H-benzimidazol-2-yl)(1H-indole-3-carboxamide)]: the results for the IC50 (in assay [1]; in assay [2]; at GST-VEGFR2) were less than 0.1 µM, 0.1 to 1 µM and less than 0.1 µM, respectively.
Regarding `COC(=O)Nc1nc2ccc(Oc3ccc(NC(=O)Nc4cc(C(F)(F)F)ccc4F)c[n+]3[O-])cc2[nH]1` [Example 107, Methyl N-(5-(5-((2-fluoro-5-(trifluoromethyl)phenyl)aminocarbonylamino)-1-oxo-2-pyridyloxy)-1H-benzimidazol-2-yl)carbamate], the figures for the IC50 (in assay [1]; in assay [2]; against GST-VEGFR2) were less than 0.1 µM, 0.1 to 1 µM and 0.1 to 1 µM, respectively.
With `COC(=O)Nc1nc2cc(Sc3ccc(NC(=O)Nc4cc(Cl)ccc4Cl)cc3)ccc2[nH]1` [Example 57, Methyl N-(5-(4-((2,5-dichlorophenyl)aminocarbonylamino)phenylthio)-1H-benzimidazol-2-yl)carbamate], the results for the half-maximal inhibitory concentration (IC50) in assay [1] and in assay [2] were less than 0.1 µM and 0.1 to 1 µM, respectively.
For `COC(=O)Nc1nc2ccc(Oc3cccc(NC(=O)Nc4cc(C(F)(F)F)ccc4Cl)c3)cc2[nH]1` [Example 52, Methyl N-(5-(3-((2-chloro-5-(trifluoromethyl)phenyl)aminocarbonylamino)phenoxy)-1H-benzimidazol-2-yl)carbamate hydrochloride], the IC50 is less than 0.1 µM in assay [1], 0.1 to 1 µM in assay [2] and less than 0.1 µM at GST-VEGFR2.
As to `O=C(Nc1ccc(Oc2ccc3[nH]c(NC(=O)c4ccccc4)nc3c2)cc1)Nc1cc(C(F)(F)F)ccc1F` [Example 99, N-(5-(4-((2-Fluoro-5-(trifluoromethyl)phenyl)aminocarbonylamino)phenoxy)-1H-benzimidazol-2-yl)benzamide], the IC50 was less than 0.1 µM in assay [1] and 0.1 to 1 µM in assay [2].
Taken in the same sequence, the figures for `COC(=O)Nc1nc2ccc(Oc3ccc(NC(=S)Nc4cccc(C(F)(F)F)c4)cc3)cc2[nH]1` [Example 186, Methyl N-(5-(4-((3-(trifluoromethyl)phenyl)aminothiocarbonylamino)phenoxy)-1H-benzimidazol-2-yl)carbamate] were 1 to 10 µM and 0.1 to 1 µM.

The values above are taken from patent US7238813B2, “Chemical compounds” (Smithkline Beecham Corporation, priority 2000, dated 2007).
